Measured values from US9557319B2, “Cell-based arrays, methods of making, and methods of using” (University of Florida Research Foundation, Inc., priority 2010, dated 2017).

Tested on: HCT116 cells
Experiment: HCT116 cell number (Hoechst nuclear stain) on drug-loaded microarray
Format: cell-based, human
Details: after 72 h
Text: The following figures (FIGS. 5.1 to 5.4) are micrographs taken from drug-eluting cellular microarrays, manufactured as described herein. The images are taken from individual cellular islands from the same array under various drug-loading conditions over a period of three days. HCT116 cells are nuclear stained with Hoechst for easy visibility. […] The water phase for this experiment was loaded with azide at various concentrations in addition to a control with no drug loaded. Azide is a useful probe reagent, mutagen, and preservative. Azide inhibits cytochrome oxidase by binding irreversibly to the heme cofactor in a process similar to the action of carbon monoxide. As such, it is expected to induce necrosis in cells at physiologically relevant doses.
To establish microarray fidelity, microarrays were manufactured as described above. HCT116 cells were then seeded over microarrays and incubated for 24 or 72 h. Microarrays were fixed in 4% paraformaldehyde and stained with Hoechst 34580 dye.
Camptothecin-loaded microarrays were stained with Annexin V (BD Pharminigen), fixed in 4% paraformaldehyde, and placed in PBS with Hoechst dye 34580 (Invitrogen, USA) for 30 min. Azide-loaded microarrays were fixed with 4% paraformaldehyde and incubated with PBS containing Hoechst 34580 dye. Finally, nutlin-3a-loaded microarrays were fixed with 4% paraformaldehyde, stained with BrdU (BD Bioscience, San Jose, Calif.), and incubated in PBS containing Hoechst 34580 dye. All arrays were mounted with Fluoro-Gel (Electron Microscope Sciences, Hatfield, Pa.) and imaged using an Axiovert 200M microscope (Carl Zeiss, Oberkochen, Germany). Analysis was performed with Axiovision (Carl Zeiss, Oberkochen, Germany) by quantifying, in each drug-eluting island, the area of fluorescence and reported as relative fluorescence intensity (RFI).

In the case of `COc1ccc(C2=N[C@@H](c3ccc(Cl)cc3)[C@@H](c3ccc(Cl)cc3)N2C(=O)N2CCNC(=O)C2)c(OC(C)C)c1` [Nutlin-3a], the “HCT116 cell numbers vs drug loading concentration” value is reported as “decreased with increasing loading concentrations”.
